Measurements from patent publication US20130316998A1, “METHOD FOR TREATING PANCREATIC CANCER” (Niiki Pharma Acquisition Corp. 2, priority 2010, published 2013).

Columns and labels:
PANC-1 cells = details: Guo et al. 2009; Durkin et al. 2003; cited from earlier work
[1] = tested on: advanced-stage pancreatic cancer; details: erlotinib in combination with gemcitabine; Moore et al. 2007; cited from earlier work
[2] = tested on: pancreatic tumor cell line MIA PaCa2; test: MTT assay in 3-dimentional tumor model (HuBiogel) derived from MIA PaCa2; assay type: cell-based; details: 3-D HuBiogel tumor beads
Method: (§1) The compound tris(8-quinolinolato)gallium(III) was tested in a 3-dimentional tumor model derived from pancreatic tumor cell line MIA PaCa2. Specifically, cells were trypsinized, washed, counted by trypan blue exclusion. Tumor beads were then prepared by mixing 20,000 cells/100 of HuBiogel (4 mg/mL) (See U.S. patent application Ser. No. 10/546,506, which is incorporated herein by reference). The 3-D tumor beads were cultivated for 72 hours in multi-well plates with complete media (10% FBS) in a 37° C. incubator +5% CO2. Mini-tumors were treated with various concentrations of the test compound tris(8-quinolinolato)gallium(III) in media (final 0.2-0.3% DMSO) or control (DMSO). Repeated drug treatment was done by removing the culture media and replacing with fresh media with drug compound or DMSO. On Day 3, MTT assay and live-cell staining with Calcein AM were performed (5 beads/assay set).
(§2) Statistical analysis of data sets (Average, T-test, GI-50) was performed using MS-Excel program. The average GI-50 (the drug concentration required for growth inhibition at 50%) is […].

[3] = tested on: pancreatic tumor cell line MIA PaCa2; test: live-cell staining with Calcein AM / image analysis in 3-D tumor beads; assay type: cell-based; details: 3-D HuBiogel tumor beads, Day 3
Method: as §1, §2

PANC-1 cell line = test: ATCC's MTT Cell Proliferation Assay, PANC-1; assay type: cell-based, human
Method: (§3) To test the activities of tris(8-quinolinolato)gallium(III), ATCC's MTT Cell Proliferation Assay® was performed using human pancreatic cancer cell lines PANC-1, BxPC-3, and Capan-1. Stock cultures were allowed to grow to 70-80% confluence for this study. The anti-proliferative activity of tris(8-quinolinolato)gallium(III), against the indicated cell lines was evaluated in vitro using the ATCC's MTT Cell Proliferation Assay (Catalog No. 30-1010K). PANC-1 was grown using DMEM, 10% fetal bovine serum (FBS), 1% of pen/strep/glutamine (PSG) and was seeded with 6E+03 cells/well. […] The plates were left overnight at room temperature in the dark and was read on a plate reader using SoftMax® Pro (version 5.2, Molecular Devices).
(§4) The absorbance data was analyzed as follows: Absorbance values were converted to Percent of Control and plotted against test agent concentrations for IC50 calculations using SoftMax® Pro (version 5.2, Molecular Devices). […] Percent of Control values were calculated by dividing the absorbance values for each test well by the No Drug Control average (column 11 values; cells+vehicle control) and multiplying by 100. Plots of Compound Concentration versus Percent of Control were analyzed using the 4-parameter equation to obtain IC50 values and other parameters that describe the sigmoidal dose response curve. […]

BxPC-3 cell line = test: ATCC's MTT Cell Proliferation Assay, BxPC-3; assay type: cell-based, human; details: BxPC-3, 72 hours post-treatment
Method: as §3, §4

Capan-1 cell line = test: ATCC's MTT Cell Proliferation Assay, Capan-1; assay type: cell-based, human; details: Capan-1, 72 hours post-treatment
Method: as §3, §4

SMILES | resistance of PANC-1 cells to the drug (PANC-1 cells) | median overall survival benefit [1] | GI50 ([2]; MTT assay on Day 3, read-out: average GI-50 (the drug concentration required for growth inhibition at 50%)) | tumor proliferation activity ([2]; MTT assay, FIG. 1) | tumor killing in live-cell staining/image analysis [3] | activity in pancreatic cancer cells resistant to gemcitabine and/or erlotinib (PANC-1 cell line; PANC-1) | IC50 (PANC-1 cell line; PANC-1, 72 hours post-treatment, MTT) | IC50 (BxPC-3 cell line) | IC50 (Capan-1 cell line)
C#Cc1cccc(Nc2ncnc3cc(OCCOC)c(OCCOC)cc23)c1 [erlotinib] | resistant | less than four weeks | – | – | – | – | – | – | –
Nc1ccn([C@@H]2O[C@H](CO)[C@@H](O)C2(F)F)c(=O)n1 [gemcitabine] | resistant | – | – | – | – | – | – | – | –
[Ga+3].[O-]c1cccc2cccnc12.[O-]c1cccc2cccnc12.[O-]c1cccc2cccnc12 [tris(8-quinolinolato)gallium(III)] | – | – | 35.7 µM | significantly inhibited tumor proliferation activity | dose-dependent tumor killing | active | 1.03 µM | 0.0032 µM | 8.17 µM
